In series [1] the test system is Mesenchymal stem cells. Nature of the series: Differentiation into neural cells, cellular morphology under a microscope. The class given is cell-based, human. As to conditions: for maintenance of the morphology of neural cells: after induction of differentiation. As for the experimental part:
Mesenchymal stem cells obtained from adipose tissue used in this Example were StemPro® Adipose-derived Stem Cells (Product No. R7788-110) purchased from Invitrogen. Frozen ampoules were thawed, and cells were washed with DMEM, centrifuged at 800 RPM for 5 minutes, and cultured in DMEM containing low glucose (1000 mg/L) and supplemented with 10% fetal bovine serum (FBS).
(§1) Mesenchymal stem cells were seeded in low glucose-Dulbecco's Modified Eagle's Medium (LG-DMEM) containing 10% fetal bovine serum (FBS) at a density of 5×10^3 cell/cm2. 24 hours after seeding, the medium was replaced with fresh DMEM/F-12 (1:1 mixed medium) supplemented with 1 uM hydrocortisone, […], 1% bovine serum albumin, and 0, 1, 2, 3, 4, 5 or 8 mM lipoic acid to induce differentiation into neural cells. Moreover, 1 uM forskolin was further added to promote differentiation into neural cells.

A further series deals with human cells. As to conditions: serum-free culture of human cells; cited from earlier work.
In series [2] the test system is Mesenchymal stem cells. Nature of the series: Immunofluorescence staining of neuron-associated proteins. Format: cell-based, human. As to conditions: all cases treated with lipoic acid, 5 days after differentiation, compared to the control. The method, then:
as §1
The neural cells cultured in Example 3 were fixed on glass coverslips with 4% paraformaldehyde for 10 minutes, blocked with PBS containing 1.5% bovine serum albumin (BSA), and then permeabilized with PBS containing 0.5% Triton™ X-100. Then, the cells were reacted with primary antibodies such as anti-NF-L, anti-MAP2, anti-GFAP, anti-NeuroD1 (Cell Signaling, USA), and anti-tau (Biosource, USA) at 4° C. for 16 hours. Then, the cells were washed with PBS for 10 minutes and reacted with species-specific secondary antibodies such as anti-rabbit IgG-Alexa Fluor® 488 or anti-mouse IgG-Alexa Fluor® 555 conjugate at room temperature for 1 hour. Then, the stained cells were mounted with Vectashield® mounting medium containing DAPI and contrast stained. The cells were examined using a Confocal Laser Scanning Microscope (LSM 510-meta, Germany), and the results are shown in FIG. 9.

In series [3] the test system is Mesenchymal stem cells. Nature of the series: RT-PCR of neuron-related genes (MAP2, DCX, Tau, NeuroD1, NSE, Nestin, NF-L). The class given is cell-based, human. The following applies: 5 days after differentiation, compared to the control. As for the experimental part:
as §1
The total RNA was recovered and isolated using TRIzol® solution (Invitrogen, USA), and then 1 ug RNA was used to synthesize cDNA using an RT-PCR kit (Clontech, USA). The genes to be analyzed were MAP2, DCX, Tau, NeuroD1, NSE, Nestin and NF-L, and the primers used for the analysis are shown in the following Table 1.

Series [4] has as its system Mesenchymal stem cells. Put plainly: Cell viability measured by MTT. Format: cell-based, human. The method, then:
The cell viability was measured by MTT (3-(4,5-dimethylthiazol-2-yl)-2,5-diphenyltetrazolium bromide). Specifically, MTT solution (0.0333 g/ml DMEM) was added to the neural cells cultured in Example 3 for reaction at 37° C. for 90 minutes and then removed. Then, dimethyl sulfoxide (DMSO) was added and left to stand for 10 minutes, and the resulting solution was used to measure the absorbance at 570 nm using a spectrum analyzer. Mesenchymal stem cells were seeded in low glucose-Dulbecco's Modified Eagle's Medium (LG-DMEM) containing 10% fetal bovine serum (FBS) at a density of 5×10^3 cell/cm2. 24 hours after seeding, the medium was replaced with fresh DMEM/F-12 (1:1 mixed medium) supplemented with 1 ug hydrocortisone, […], 1% bovine serum albumin, and 0, 1, 2, 3, 4, 5 or 8 mM lipoic acid to induce differentiation into neural cells. Moreover, 1 ug forskolin or […] (NGF) might be further added to enhance differentiation into neural cells. […]

Series [5] concerns Mesenchymal stem cells. Put plainly: Western blot analysis of neuron-associated proteins (NSE, Nestin, NF-L). The class given is cell-based, human. As to conditions: 5 days after differentiation, compared to the control. As for the experimental part:
as §1
The neural cells cultured in Example 3 were washed with phosphate-buffered saline (PBS) and lysed with radioimmunoprecipitation (RIPA) buffer containing protease inhibitor. The total protein was measured using a BCA® Protein Assay kit (Pierce, USA), and 10 ug protein was electrophoresed on a 10% polyacrylamide gel and transferred to a nitrocellulose membrane. Then, the membrane was blocked with Tris-buffered saline (TBS) containing 5% skim milk and 0.5% Tween® 20 at room temperature for 30 minutes and reacted with antibodies such as anti-NSE, anti-Nestin, Anti-NF-L (Cell Signaling, USA), and β-actin (Sigma, USA) at 4° C. for 16 hours. Subsequently, the membrane was reacted with an anti-mouse or anti-rabbit secondary antibody at room temperature for 1 hour, exposed to ECL™ (Pierce™ Biotechnology, USA), and then imaged using a ChemiDoc™ XRS+Imaging System (BioRad®, USA).
(In general: Immunoblotting shows a protein as a band on a membrane.)

The term cell viability denotes a per cent measure of how many cells are alive, often set against a control. Low readings indicate a greater loss of cells, high ones better survival. Take `O=C(O)CCCC[C@@H]1CCSS1` (racemic) [lipoic acid]: the “maintenance of the morphology of neural cells” value in the series on Mesenchymal stem cells [1] is on record as “well maintained up to 5 days”. Moreover, in the series with Mesenchymal stem cells [1] (lipoic acid at 1 mM, 5 days, with hydrocortisone, insulin, 1% bovine serum albumin), the “morphological changes of neural cells” value is “no change”. In the series with Mesenchymal stem cells [1] (lipoic acid at more than 2 mM, 5 days, with 1 uM hydrocortisone, […], 1% bovine serum albumin), the “morphological changes of neural cells (dendrite formation)” value is given as “dendrites were well formed”. Also, the “concentration known to cause cell apoptosis” value with human cells is at least 2000 µM. In addition, in the series with Mesenchymal stem cells [2], the “expression of neuron-associated proteins (immunofluorescence)” value is reported as “increased”. Moreover, the entries for the “expression of neuron-related genes (mRNAs)” value with Mesenchymal stem cells [3] (4 mM lipoic acid) and in the series on Mesenchymal stem cells [3] (8 mM lipoic acid) were “further increased” and “increased”, respectively. Besides, the cell viability with Mesenchymal stem cells [4] (human, 4 mM) was found to be 61.4%; with Mesenchymal stem cells [4] (human, 8 mM) it was 51.4%. Also, the “expression of neuron-associated proteins (Western blot)” value with Mesenchymal stem cells [5] (4 mM lipoic acid) is “further increased”; in the series on Mesenchymal stem cells [5] (8 mM lipoic acid), “increased”.
In the case of `COc1ccc(O)c(C(C)(C)C)c1` [butylated hydroxyanisole], the “maintenance of the morphology of neural cells” value with Mesenchymal stem cells [1] is “destroyed after 24 hours”. Moreover, the cell viability entry with Mesenchymal stem cells [4] (5 days, 200 ug butylated hydroxyanisole (control)) is listed as “too low”.

The values are drawn from patent US9499787B2, “Method for differentiating stem cells into neurons” (Dongguk University Industry-Academic Cooperation Foundation, priority 2012, dated 2016).
